According to patent US8686002B2, “Heterocyclic compounds and their use as binding partners for 5-HT5 receptors” (AbbVie Deutschland GmbH & Co. KG, priority 2005, dated 2014):
Where a name gives a salt, the structure may show the parent alone.

These compounds were tested against 5-HT5A (Homo sapiens, UniProt P47898) (assay: Affinity of selected compounds for 5-HT5A (Ki)).
Assay type: binding
Experimental: In both assays, different concentrations of the test substances are used and the Ki and IC50 values are determined.

5-HT5A, sequence (P47898 whole entry): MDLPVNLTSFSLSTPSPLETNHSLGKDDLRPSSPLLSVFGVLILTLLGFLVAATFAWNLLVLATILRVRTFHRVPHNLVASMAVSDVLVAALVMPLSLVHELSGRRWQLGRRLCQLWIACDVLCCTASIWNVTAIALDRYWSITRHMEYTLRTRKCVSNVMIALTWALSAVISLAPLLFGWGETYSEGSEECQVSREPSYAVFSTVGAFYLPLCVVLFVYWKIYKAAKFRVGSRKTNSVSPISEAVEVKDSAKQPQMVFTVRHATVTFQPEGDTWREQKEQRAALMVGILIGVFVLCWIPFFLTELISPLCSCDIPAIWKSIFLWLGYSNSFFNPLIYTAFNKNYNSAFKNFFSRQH

Q: With `COc1ccccc1Cc1cc2ccc(N(C)C)cc2nc1N` [Example 28, 3-(2-Methoxybenzyl)-N^7,N^7-dimethylquinolin-2,7-diamine] as the compound, how does the Ki read?
A: Its Ki is less than 300 nM.

Q: With `COc1cccc(F)c1Cc1cc2ccccc2nc1N` [Example 29, 3-(2-Fluoro-6-methoxybenzyl)quinolin-2-amine] as the compound, how does the Ki read?
A: The Ki was less than 300 nM.

Q: Which Ki does the source give for `COc1cccc(Cl)c1Cc1cc2ccccc2nc1N` [Example 30, 3-(2-Chloro-6-methoxybenzyl)quinolin-2-amine] here?
A: Its Ki is less than 300 nM.

Q: For `CCOc1ccc2nc(N)c(Cc3ccccc3OC)cc2c1` [Example 31, 6-Ethoxy-3-(2-methoxybenzyl)quinolin-2-amine], which Ki is on record?
A: Its Ki is less than 300 nM.

Q: For `CCOc1ccc2nc(N)c(Cc3c(OC)cccc3OC)cc2c1` [Example 32, 6-Ethoxy-3-(2,6-dimethoxybenzyl)quinolin-2-amine], which Ki is on record?
A: Its Ki is less than 300 nM.

Q: Which Ki does the source give for `COc1ccccc1Cc1cc2cnccc2nc1N` [Example 33, 3-(2-Methoxybenzyl)-1,6-naphthyridin-2-amine] here?
A: Its Ki is less than 300 nM.

Q: For `COc1ccccc1Cc1cc2cccnc2nc1N` [Example 34, 3-(2-Methoxybenzyl)-1,8-naphthyridin-2-amine], which Ki is on record?
A: The Ki was less than 10000 nM.

Q: Which Ki does the source give for `COc1cccc(F)c1Cc1cc2cnccc2nc1N` [Example 35, 3-(2-Fluoro-6-methoxybenzyl)-1,6-naphthyridin-2-amine] here?
A: Its Ki is less than 300 nM.

Q: How did the Ki turn out when `COc1ccccc1Cc1cc2ccncc2nc1N` [Example 36, 3-(2-Methoxybenzyl)-1,7-naphthyridin-2-amine] was run?
A: Its Ki is less than 300 nM.

Q: With `COc1cccc(OC)c1Cc1cc2ccncc2nc1N` [Example 37, 3-(2,6-Dimethoxybenzyl)-1,7-naphthyridin-2-amine] as the compound, how does the Ki read?
A: The Ki was less than 300 nM.

Q: `COc1ccccc1Cc1cc2ncccc2nc1N` [Example 38, 3-(2-Methoxybenzyl)-1,5-naphthyridin-2-amine] was tested. Which Ki did it give?
A: The Ki was less than 300 nM.

Q: Which Ki does the source give for `COc1ccccc1Cc1cc2ccc(F)cc2nc1N` [Example 39, 7-Fluoro-3-(2-methoxybenzyl)quinolin-2-amine] here?
A: The Ki was less than 300 nM.

Q: Which Ki does the source give for `COc1cccc(Cl)c1Cc1cc2cc3c(cc2nc1N)OCO3` [Example 40, 7-(2-Chloro-6-methoxybenzyl)[1.3]dioxolo[4,5-g]quinolin-76-amine] here?
A: Its Ki is less than 300 nM.

Q: With `COc1ccccc1Cc1cc2cc(F)c(F)cc2nc1N` [Example 41, 6,7-Difluoro-3-(2-methoxybenzyl)quinolin-2-amine] as the compound, how does the Ki read?
A: Its Ki is less than 300 nM.

Q: For `COc1cccc(F)c1Cc1cc2ccc(F)cc2nc1N` [Example 42, 7-Fluoro-3-(2-fluoro-6-methoxybenzyl)quinolin-2-amine], which Ki is on record?
A: Its Ki is less than 300 nM.

Q: `COCCOc1ccc2nc(N)c(Cc3ccccc3OC)cc2c1` [Example 43, 3-(2-Methoxybenzyl)-6-(2-methoxyethoxy)quinolin-2-amine] was tested. Which Ki did it give?
A: Its Ki is less than 300 nM.

Q: With `COc1ccccc1Cc1cc2cc(N3CCOCC3)ccc2nc1N` [Example 44, 3-(2-Methoxybenzyl)-6-morpholin-4-ylquinolin-2-amine] as the compound, how does the Ki read?
A: Its Ki is less than 300 nM.

Q: Which Ki does the source give for `COc1cccc(F)c1Cc1cc2cc(N3CCOCC3)ccc2nc1N` [Example 45, 3-(2-Methoxy-6-fluorobenzyl)-6-morpholin-4-ylquinolin-2-amine] here?
A: Its Ki is less than 300 nM.

Q: How did the Ki turn out when `COc1cccc(OC)c1Cc1cc2ncccc2nc1N` [Example 46, 3-(2,6-Dimethoxybenzyl)-1,5-naphthyridin-2-amine] was run?
A: The Ki was less than 300 nM.

Q: With `COc1cccc(F)c1Cc1cc2ncccc2nc1N` [Example 47, 3-(2-Fluoro-6-methoxybenzyl)-1,5-naphthyridin-2-amine] as the compound, how does the Ki read?
A: The Ki was less than 300 nM.

Q: How did the Ki turn out when `COc1ccccc1Cc1cc2cc(N3CCN(C)CC3)ccc2nc1N` [Example 48, 3-(2-Methoxybenzyl)-6-(4-methylpiperazin-1-yl)quinolin-2-amine bisfumarate] was run?
A: The Ki was less than 300 nM.

Q: `COc1cccc(F)c1Cc1cc2cc(N3CCN(C)CC3)ccc2nc1N` [Example 49, 3-(2-Fluoro-6-methoxybenzyl)-6-(4-methylpiperazin-1-yl)quinolin-2-aminomonofumarate] was tested. Which Ki did it give?
A: Its Ki is less than 300 nM.

Q: `COc1ccccc1Cc1cc2cc(N3CCOCC3)c(F)cc2nc1N` [Example 50, 7-Fluoro-3-(2-methoxybenzyl)-6-morpholin-4-ylquinolin-2-amine] was tested. Which Ki did it give?
A: The Ki was less than 300 nM.

Q: With `COc1ccccc1Cc1cc2cccc(OC)c2nc1N` [Example 51, 8-Methoxy-3-(2-methoxybenzyl)quinolin-2-amine] as the compound, how does the Ki read?
A: The Ki was less than 300 nM.

Q: For `COc1cccc(OC)c1Cc1cc2cccc(OC)c2nc1N` [Example 52, 3-(2,6-Dimethoxybenzyl)-8-methoxyquinolin-2-amine hydrochloride], which Ki is on record?
A: Its Ki is less than 300 nM.

Q: How did the Ki turn out when `Nc1nc2ccccc2cc1Cc1ccccc1OC(F)(F)F` [Example 53, 3-[2-(Trifluoromethoxy)benzyl]quinolin-2-amine] was run?
A: The Ki was less than 300 nM.

Q: How did the Ki turn out when `CC(C)Oc1ccccc1Cc1cc2ccccc2nc1N` [Example 54, 3-(2-Isopropoxybenzyl)quinolin-2-amine hydrochloride] was run?
A: Its Ki is less than 300 nM.

Q: How did the Ki turn out when `CCOc1ccccc1Cc1cc2ccccc2nc1N` [Example 55, 3-(2-Ethoxybenzyl)quinolin-2-amine hydrochloride] was run?
A: The Ki was less than 300 nM.

Q: Which Ki does the source give for `CC(C)Oc1cccc(F)c1Cc1cc2ccccc2nc1N` [Example 56, 3-(2-Fluoro-6-isopropoxybenzyl)quinolin-2-amine hydrochloride] here?
A: Its Ki is less than 300 nM.

Q: Which Ki does the source give for `COc1cccc(Cl)c1Cc1cc2ncccc2nc1N` [Example 58, 3-(2-Chloro-6-methoxybenzyl)-1,5-naphthyridin-2-amine] here?
A: The Ki was less than 300 nM.

Q: Which Ki does the source give for `CCOc1cccc(F)c1Cc1cc2ccccc2nc1N` [Example 59, 3-(2-Ethoxy-6-fluorobenzyl)quinolin-2-amine hydrochloride] here?
A: Its Ki is less than 300 nM.

Q: For `CN(C)CCOc1cccc(F)c1Cc1cc2ccccc2nc1N` [Example 60, 3-{2-[2-(Dimethylamino)ethoxy]-6-fluorobenzyl}quinolin-2-amine bishydrochloride], which Ki is on record?
A: Its Ki is less than 300 nM.

Q: For `Nc1nc2ccccc2cc1Cc1ccccc1OC(F)F` [Example 61, 3-[2-(difluoromethoxy)benzyl]quinolin-2-amine], which Ki is on record?
A: Its Ki is less than 300 nM.

Q: `CCOc1ccccc1Cc1cc2cc(N3CCOCC3)ccc2nc1N` [Example 62, 3-(2-Ethoxygenzyl)-6-morpholin-4-ylquinolin-2-amine monofumarate] was tested. Which Ki did it give?
A: Its Ki is less than 300 nM.

Q: How did the Ki turn out when `COc1cccc(OC)c1CN1Cc2ccccc2N=C1N` [Example 63, 3-(2,6-Dimethoxybenzyl)-3,4-dihydroquinazolin-2-amine acetate] was run?
A: The Ki was less than 300 nM.

Q: Which Ki does the source give for `COc1ccccc1CN1Cc2ccccc2N=C1N` [Example 64, 3-(2-Methoxybenzyl)-3,4-dihydroquinazolin-2-amine hydrochloride] here?
A: Its Ki is less than 300 nM.

Q: With `COc1ccccc1CN1Cc2ccc(Cl)cc2N=C1N` [Example 65, 7-Chloro-3-(2-methoxybenzyl)-3,4-dihydroquinazolin-2-amine] as the compound, how does the Ki read?
A: Its Ki is less than 300 nM.

Q: How did the Ki turn out when `COc1ccccc1CN1Cc2ccc(C(F)(F)F)cc2N=C1N` [Example 66, 3-(2-Methoxybenzyl)-7-(trifluoromethyl)-3,4-dihydroquinazolin-2-amine hydrochloride] was run?
A: Its Ki is less than 300 nM.

Q: `COc1cc(Cl)ccc1CN1Cc2ccccc2N=C1N` [Example 67, 3-(4-Chloro-2-methoxybenzyl)-3,4-dihydroquinazolin-2-amine hydrochloride] was tested. Which Ki did it give?
A: The Ki was less than 300 nM.

Q: For `NC1=Nc2ccccc2CN1Cc1cccc2c1OCC2` [Example 68, 3-(2,3-Dihydro-1-benzofuran-7-ylmethyl)-3,4-dihydroquinazolin-2-amine hydrochloride], which Ki is on record?
A: Its Ki is less than 300 nM.

Q: With `NC1=Nc2ccccc2CN1Cc1ccccc1OC(F)(F)F` [Example 69, 3-[2-(Trifluoromethoxy)benzyl]-3,4-dihydroquinazolin-2-amine] as the compound, how does the Ki read?
A: The Ki was less than 300 nM.
